From patent US12172946B2, “Compound containing diphenylmethane structure and use thereof” (GUANGZHOU TROJAN PHARMATEC LTD., priority 2019, dated 2024)

Test: solubility of the compound in common solvents
Format: physicochemical
Conditions: 25-30° C.; for solubility in DMF: N,N-dimethylformamide; for solubility in i-PrOAc: isopropyl acetate; for solubility in MTBE: methyl tert-butyl ether
Protocol: The solubility of the compound of the present invention in common solvents was investigated (25-30° C.), and the results are shown in Table 1. It can be seen from Table 1 that the compound of the present invention has good solubility in all of heptane, isopropyl acetate (i-PrOAc), methyl tert-butyl ether (MTBE) and N,N-dimethylformamide (DMF), and particularly, the solubility in N,N-dimethylformamide is much higher than Comparative Examples.

| Compound | solubility in DMSO [%] | solubility in MeOH [%] | solubility in DMF [%] | solubility in Heptane [%] | solubility in i-PrOAc [%] | solubility in MTBE [%] |
| --- | --- | --- | --- | --- | --- | --- |
| CC(C)CCCC(C)CCCC(C)CCCC(C)CCOc1ccc(C(N)c2ccc(OCCC(C)CCCC(C)CCCC(C)CCCC(C)C)cc2)cc1 (stereo not drawn) [REF-001, 4,4′-di(dihydrophytanyloxy)-benzhydrylamine, reference compound] | <1 | <1 | >0.1 | >50 | >100 | >100 |
| CCCCCCCCCCCCCOc1ccc(CC(=O)NCCOCCOc2ccc(C(N)c3ccccc3)cc2)cc1OCCCCCCCCCCCCC (stereo not drawn) [DPA-013, 4-(2-(2-(3,4-di(isomeric tridecyloxy)-phenylacetamido)-ethoxy)-ethoxy)-benzhydrylamine] | <1 | <1 | >50 | >50 | >70 | >50 |
| CC(C)CCCCCCOc1cc(C(=O)NCCOCCOc2ccc(C(N)c3ccc(Cl)cc3)cc2)cc(OCCCCCCC(C)C)c1OCCCCCCC(C)C (stereo not drawn) [DPA-011, 4-(2-(2-(3,4,5-tris(isononyloxy)-benzamido)-ethoxy)-ethoxy)-4′-chloro-benzhydrylamine] | <1 | <1 | >150 | >100 | >100 | >50 |
| 4,4′-di(2-(2-(3,4,5-tris(2,3-dihydrophytoxy)-benzamido)-ethoxy)-ethoxy)-benzhydrylamine [DPA-004] | <1 | <1 | >1 | >50 | >100 | >100 |
| CC(CCC(C(=O)N(CCOCCOc1ccc(C(N)c2ccc(OCCOCCN(Cc3ccccc3)C(=O)C(CCC(C)CC(C)(C)C)C(C)CC(C)(C)C)cc2)cc1)Cc1ccccc1)C(C)CC(C)(C)C)CC(C)(C)C (stereo not drawn) [DPA-020] | <5 | <5 | >100 | >100 | >100 | >100 |
| 4,4′-di((5-(3,4,5-tris(isononyloxy)-benzamido)-2-one-3-aza-hexyl)oxy)-benzhydrylamine [DPA-009] | <1 | <1 | >30 | >10 | >25 | >30 |
| 4-(2-(2-(3,4,5-tris(isomeric decyloxy)-benzamido)-ethoxy)-ethoxy)-benzhydrylamine [DPA-006] | <1 | <1 | >100 | >100 | >100 | >100 |
| CCCCCCCCCCCCCOc1cc(C(=O)NCCOCCOc2ccc(C(N)c3ccc(OCCOCCNC(=O)c4cc(OCCCCCCCCCCCCC)c(OCCCCCCCCCCCCC)c(OCCCCCCCCCCCCC)c4)cc3)cc2)cc(OCCCCCCCCCCCCC)c1OCCCCCCCCCCCCC [DPA-003, 4,4′-di(2-(2-(3,4,5-tris(isomeric tridecyloxy)-benzamido)-ethoxy)-ethoxy)-benzhydrylamine] | <1 | <1 | >20 | >50 | >100 | >100 |
| CCCCCCCCCCCCCOc1cc(C(=O)NCCCCC(NC(=O)c2cc(OCCCCCCCCCCCCC)c(OCCCCCCCCCCCCC)c(OCCCCCCCCCCCCC)c2)C(=O)NCCOCCOc2ccc(C(N)c3ccccc3)cc2)cc(OCCCCCCCCCCCCC)c1OCCCCCCCCCCCCC (stereo not drawn) [DPA-017] | <5 | <5 | >100 | >100 | >100 | >100 |

Other lines, results leading:

| solubility in DMSO [%] | solubility in MeOH [%] | solubility in DMF [%] | solubility in Heptane [%] | solubility in i-PrOAc [%] | solubility in MTBE [%] | Compound |
| --- | --- | --- | --- | --- | --- | --- |
| <1 | <1 | >0.1 | >100 | >100 | >100 | CC(C)CCCC(C)CCCC(C)CCCC(C)CCOc1cc(COc2ccc(C(N)c3ccccc3)cc2)cc(OCCC(C)CCCC(C)CCCC(C)CCCC(C)C)c1OCCC(C)CCCC(C)CCCC(C)CCCC(C)C (stereo not drawn) [REF-002, reference compound] |
| <1 | <1 | >40 | >40 | >40 | >40 | CCCCCCCCCCCCCOc1ccc(CN(CC(=O)NCCOCCOc2ccc(C(N)c3ccccc3)cc2)C(=O)CC(C)CC(C)(C)C)cc1OCCCCCCCCCCCCC (stereo not drawn) [DPA-030, 4-(2-(2-(2-(N″-3,4-di(isomeric tridecyloxy)-benzyl)-isononanoamido)-acetamido)-ethoxy)-ethoxy-benzhydrylamine] |
| <1 | <1 | >100 | >50 | >100 | >100 | CCCCCCCCCCCCCOc1cc(C(=O)N(C)CCOc2ccc(C(N)c3ccccc3)cc2)cc(OCCCCCCCCCCCCC)c1OCCCCCCCCCCCCC (stereo not drawn) [DPA-026, 4-(2-(N′-methy-3,4,5-tri(isomeric tridecyloxy)-benzamido)-ethoxy)-benzhydrylamine] |
| <1 | <1 | >40 | >30 | >50 | >50 | CCCCCCCCCCCCCOc1cc(C(=O)NCCOCCOc2ccc(C(O)(c3ccccc3)c3ccccc3Cl)cc2)cc(OCCCCCCCCCCCCC)c1OCCCCCCCCCCCCC (stereo not drawn) [DPA-033] |
| <1 | <1 | >100 | >100 | >100 | >100 | CCCCCCCCCCCCCOc1ccc(CN(CCOCCOc2ccc(C(N)c3ccccc3)cc2)C(=O)c2cc(OCCCCCCCCC)c(OCCCCCCCCC)c(OCCCCCCCCC)c2)cc1OCCCCCCCCCCCCC (stereo not drawn) [DPA-029] |
| <1 | <1 | >100 | >100 | >100 | >100 | CCCCCCCCCCCCCOc1ccc(CN(CCOCCOc2ccc(C(N)c3ccccc3)cc2)C(=O)CC(C)CC(C)(C)C)cc1OCCCCCCCCCCCCC (stereo not drawn) [DPA-028] |
| <5 | <5 | >30 | >50 | >50 | >50 | CCCCCCCCCCCCOc1cc(C(=O)NCCOCCOc2ccc(C(N)c3ccccc3)cc2)cc(OCCCCCCCCCCCC)c1OCCCCCCCCCCCC (stereo not drawn) [DPA-023, 4-(2-(2-(3,4,5-tri(n-dodecyloxy)-benzamido)-ethoxy)-ethoxy)-benzhydrylamine] |
| <1 | <1 | >40 | >10 | >10 | >10 | CCCCCCCCCCCCCOc1cc(C(=O)NCCOCCOc2ccc(C(O)(c3ccccc3)c3ccccc3)cc2)cc(OCCCCCCCCCCCCC)c1OCCCCCCCCCCCCC [DPA-032] |
